Experimental findings from ChEMBL document CHEMBL1201862, “PubChem BioAssay data set” (2004) are described below.

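Values below derive from 48-hour exposures of cells grown in 96-well plates, with endpoints linearly interpolated between the two concentrations bracketing the appropriate inhibition level. Here, GI50 denotes the concentration required for 50% inhibition of growth.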 The source made the active and inactive calls. Rule as the data show it: active = GI50 up to about 1.1 µM and inactive = higher. Bounds are passed on as bounds.

In general, GI50 refers to the concentration that inhibits growth by half.

Common to all, as to test: DTP human tumour cell line panel, 48 h
In test [1] the test system is COLO 205.
Test [2] concerns NCI-H23.
Test [3] concerns K562.
In test [4] the test system is SK-MEL-28.
Test [5] concerns SNB-19.
Test [6] relates to SK-MEL-2.
The subject of test [7] is SF-539.
For test [8], the system named is MOLT-4.
The subject of test [9] is UACC-257.
Test [10] deals with M19-MEL.
Test [11] concerns TK-10.
The subject of test [12] is CCRF-CEM.
In test [13] the test system is SNB-75.
Test [14] has as its system A549.
Test [15] relates to NCI-H460.
The test system of test [16] is SF-268.
In test [17] the test system is T47D.
Test [18] has as its system MDA-MB-435.
In test [19] the test system is BT-549.
For test [20], the system named is MDA-MB-231.

`O=C(O)C1=NN=C(C(=O)O)NN1`: the GI50 was > 100 µM (inactive) in test [1]; > 100 µM (inactive) in test [2]; 72.9 µM (inactive) in test [3]; > 100 µM (inactive) in test [4]; > 100 µM (inactive) in [5]; > 100 µM (inactive) in test [6]. Also, the GI50 in test [7], in test [8], in [9], in [10], in [11] and in [12] was > 100 µM (inactive) throughout. The GI50 in [13] is > 100 µM (inactive); in test [14], > 100 µM (inactive); in test [15], 79.4 µM (inactive); in test [16], > 100 µM (inactive).

Regarding `COc1cccc(NC(=O)CC(=O)N2N=C(n3ccc4ccccc43)CC2c2ccccc2)c1` (stereo not drawn), the GI50 in test [1], in [2], in test [3], in [4], in test [5] and in [6] was > 100 µM (inactive) in each case. Also, the GI50 in test [7], in test [8], in test [9], in [10], in [11] and in test [12] was > 100 µM (inactive) throughout. The GI50 in [13] is 71.3 µM (inactive); in [14] it was > 100 µM (inactive); in test [15], > 100 µM (inactive); in [16] it was > 100 µM (inactive).

As for `Cn1cnc([N+](=O)[O-])c1Sc1nccn1-c1cccc2ccccc12`, the GI50 in test [1] was 16.7 µM (inactive); in [2], 23 µM (inactive); in test [3], 19.8 µM (inactive); in [4] it was 22.5 µM (inactive); in test [5], 94 µM (inactive); in test [6] it was 14.1 µM (inactive). Moreover, the GI50 in test [7] was 25.4 µM (inactive); in test [8], 12.9 µM (inactive); in test [9], 27.3 µM (inactive); in [10], 25.7 µM (inactive); in [11], 22 µM (inactive); in test [12], 19.5 µM (inactive). Further, the GI50 in test [13] was 29.9 µM (inactive); in test [14], 35 µM (inactive); in test [15] it was 25.7 µM (inactive); in test [16], 24.8 µM (inactive).

Regarding `COC(=O)c1c2cccccc-2c(Cc2c3cccccc-3c(C(=O)OC)c2O)c1O`, the GI50 in [1], in test [2], in [3], in test [4], in test [5] and in test [6] was > 100 µM (inactive) in each case. The GI50 in [7], in test [8], in test [9], in [10], in test [11] and in test [12] was > 100 µM (inactive) in each case. Moreover, the GI50 was 86.5 µM (inactive) in [13], > 100 µM (inactive) in test [14], > 100 µM (inactive) in [15] and > 100 µM (inactive) in test [16].

With `CC(=O)c1cccc(NC2C(N)C(NC(=O)N(C)C)(C(C)O)C(C)(O)C2(O)COC(=O)c2c(C)cccc2O)c1` (stereo not drawn), the GI50 in [17], in test [18], in test [1], in test [2], in [3] and in test [4] was < 0.001 µM (active) in each case. Besides, the concentration for 50% growth inhibition (GI50) in test [19] was < 0.001 µM (active); in [5], < 0.001 µM (active); in test [20] it was 0.00187 µM (active); in test [6], 0.01 µM (active); in test [7] it was < 0.001 µM (active); in [8], < 0.001 µM (active). Besides, the GI50 in test [9] is 0.00113 µM (active); in test [10], 0.01 µM (active); in test [11] it was < 0.001 µM (active); in test [12], < 0.001 µM (active); in test [13], 0.0948 µM (active); in [14], < 0.001 µM (active). For the same molecule, the results for the GI50 in test [15] and in [16] were < 0.001 µM (active) and 0.0263 µM (active), respectively.

Consider `Cc1cccc(C)c1NC(=O)CCC/C(CC(=O)c1ccc(F)cc1)=N\NC(=O)C(=O)NN`, for which the GI50 in [1], in test [2], in [3], in [4], in [5] and in test [6] was > 100 µM (inactive) throughout. Besides, the GI50 in test [7], in test [8], in [9], in [10], in [11] and in [12] was > 100 µM (inactive) throughout. In addition, the GI50 in test [13], in test [14], in test [15] and in test [16] was > 100 µM (inactive) throughout.

On to `CN(C)CCS/C(=N\c1ccccc1)N1C=COC=C1`, for which the GI50 is 15.3 µM (inactive) in [17]; 18.9 µM (inactive) in test [18]; 27.2 µM (inactive) in test [1]; 25.8 µM (inactive) in [2]; > 67.8 µM (inactive) in test [3]; 19.5 µM (inactive) in test [4]. Moreover, the GI50 in [19] was > 100 µM (inactive); in test [5], > 100 µM (inactive); in test [20], 20.9 µM (inactive); in [6] it was 17.3 µM (inactive); in test [7], 29.2 µM (inactive); in [8], > 84.7 µM (inactive). For the same molecule, the GI50 in test [9] is 18.2 µM (inactive); in test [10], 17.5 µM (inactive); in [11] it was 47.5 µM (inactive); in [12], > 74.6 µM (inactive); in test [13], > 78.7 µM (inactive); in [14] it was > 100 µM (inactive). Moreover, the GI50 in test [15] was > 68.5 µM (inactive); in test [16], 15.8 µM (inactive).

Consider `C=C(COC(C)=O)CC(/C=C(\C)CC/C=C(\C)CO)OC(C)=O` (stereo not drawn), for which the GI50 in test [1], in [2], in test [3], in test [4], in test [5] and in test [6] was > 100 µM (inactive) in each case. The GI50 in [7] was > 100 µM (inactive); in [8], 35.1 µM (inactive); in test [10] it was > 100 µM (inactive); in [11], > 100 µM (inactive); in test [12], > 100 µM (inactive); in test [13] it was 59 µM (inactive). Also, the GI50 in test [14], in test [15] and in test [16] was > 100 µM (inactive) throughout.

For the molecule `O=C(Cn1ccnc1[N+](=O)[O-])c1ccccc1`, the GI50 in test [1], in test [2], in test [3], in test [4], in test [5] and in [6] was > 100 µM (inactive) each time. Further, the GI50 in test [7], in test [8], in test [9], in test [10], in test [11] and in test [12] was > 100 µM (inactive) each time. Also, the GI50 in test [13], in [14], in test [15] and in [16] was > 100 µM (inactive) throughout.

Turning to `COc1cc2c(c(OC)c1)C(=O)C(=O)C(CC1(C)OCCCO1)=C2`, the GI50 in test [1] was 3.49 µM (inactive); in test [2] it was 9.12 µM (inactive); in test [3] it was 2.29 µM (inactive); in test [4] it was 15.2 µM (inactive); in test [5] it was 22.2 µM (inactive); in test [6], 16 µM (inactive). In addition, the GI50 in test [7] was 17.5 µM (inactive); in test [8], 3.27 µM (inactive); in test [9], 14.1 µM (inactive); in [10] it was 2.32 µM (inactive); in test [11], 6.14 µM (inactive); in [12] it was 1.91 µM (inactive). The GI50 in test [13] is 19.5 µM (inactive); in test [14], 10.9 µM (inactive); in test [15], 13.3 µM (inactive); in [16], 14.7 µM (inactive).

With `Cn1cc2ccccc2c1-c1nc(F)nc(OCC(=O)[C@H]2CCC3[C@@H]4CCC5=CC(=O)CC[C@]5(C)C4[C@@H](O)C[C@@]32C)n1` (stereo partly drawn), the GI50 in [1] is 20 µM (inactive); in test [2] it was 7.78 µM (inactive); in test [3], 2.91 µM (inactive); in test [4], 11.2 µM (inactive); in test [5], 19.4 µM (inactive); in [6], 13.2 µM (inactive). Moreover, the GI50 in test [7] is 17.8 µM (inactive); in test [8], 4.83 µM (inactive); in test [9], 18.8 µM (inactive); in [10], 4.34 µM (inactive); in test [11], 23.1 µM (inactive); in test [12], 4.31 µM (inactive). Further, the GI50 is 19 µM (inactive) in test [13], 32.4 µM (inactive) in test [14], 21.7 µM (inactive) in test [15] and 13.1 µM (inactive) in [16].
